Data published in ChEMBL document CHEMBL4680250, “Identification of tetracyclic lactams as NMDA receptor antagonists with potential application in neurological disorders” (Eur J Med Chem, 2020).

Tests used:
Glutamate NMDA receptor [1] = assay: Antagonist activity at NMDAR in embryonic cultures of rat cortical neuron assessed as inhibition of NMDA-induced calcium influx preincubated for 10 mins followed by NMDA addition by Fluo-4/AM dye based fluorescence assay; format: tissue-based
Glutamate NMDA receptor [2] = assay: Antagonist activity at NMDAR in embryonic cultures of rat cortical neuron assessed as inhibition of NMDA-induced calcium influx at 30 uM preincubated for 10 mins followed by NMDA addition by Fluo-4/AM dye based fluorescence assay relative to control; format: tissue-based
HepG2 = assay: Cytotoxicity against human HepG2 cells assessed as reduction in cell viability by MTT assay; format: cell-based
HEK293 = assay: Cytotoxicity against HEK293 cells assessed as reduction in cell viability by MTT assay; format: cell-based; settings: Homo sapiens
[3] = Permeability of compound in PBS at pH 7.4 incubated for 120 mins by UV spectroscopy assay based PAMPA-BBB assay; format: ADME; settings: read-out: permeability
[4] = molecular target: Glutamate [NMDA] receptor; assay: Binding affinity to NMDAR (unknown origin); format: protein-complex assay, Homo sapiens

SMILES: C[C@@H]1CC(=O)N2[C@H]3c4ccccc4C[C@H]3O[C@]12c1ccc(Cl)cc1
- IC50 (Glutamate NMDA receptor [1]): 13 µM
- IC50 (Glutamate NMDA receptor [2]; read-out: IC50): 69 µM
- IC50 (HepG2): 34 µM
- IC50 (HEK293): 46 µM

SMILES: O=C1CC[C@]2(c3ccc(Cl)cc3)O[C@H]3Cc4ccccc4[C@@H]3N12
- IC50 (Glutamate NMDA receptor [1]): 13 µM
- IC50 (Glutamate NMDA receptor [2]; read-out: IC50): 65 µM
- IC50 (HepG2): > 100 µM
- IC50 (HEK293): > 100 µM
- Papp at 2 h [3]: 15.8 ×10⁻⁶ cm/s

SMILES: O=C1CC[C@@]2(c3ccc(Br)cc3)O[C@@H]3Cc4ccccc4[C@@H]3N12
- IC50 (Glutamate NMDA receptor [1]): 16 µM
- IC50 (Glutamate NMDA receptor [2]; read-out: IC50): 73 µM
- IC50 (HepG2): > 100 µM
- IC50 (HEK293): > 100 µM
- Papp at 2 h [3]: 12.3 ×10⁻⁶ cm/s

SMILES: COc1ccc([C@@]23CCC(=O)N2[C@H]2c4ccccc4CC2O3)cc1F (single isomer, unassigned)
- IC50 (Glutamate NMDA receptor [2]; read-out: IC50): 13 µM

SMILES: O=C1CC[C@@]2(c3ccc(F)cc3)O[C@@H]3Cc4ccccc4[C@@H]3N12
- IC50 (Glutamate NMDA receptor [1]): 17 µM
- IC50 (Glutamate NMDA receptor [2]; read-out: IC50): 56 µM
- IC50 (HepG2): > 100 µM
- IC50 (HEK293): > 100 µM
- Papp at 2 h [3]: 24.2 ×10⁻⁶ cm/s

SMILES: O=C1CC[C@@]2(c3ccccc3)O[C@H]3Cc4ccccc4[C@@H]3N12
- IC50 (Glutamate NMDA receptor [2]; read-out: IC50): 29 µM

SMILES: COc1ccc([C@@]23CCC(=O)N2[C@H]2c4ccccc4C[C@H]2O3)cc1
- IC50 (Glutamate NMDA receptor [2]; read-out: IC50): 4 µM

SMILES: CS(=O)(=O)c1ccc([C@@]23CCC(=O)N2[C@H]2c4ccccc4C[C@H]2O3)cc1
- IC50 (Glutamate NMDA receptor [2]): Not Active

SMILES: Cc1ccc([C@@]23CCC(=O)N2[C@H]2c4ccccc4C[C@H]2O3)cc1
- IC50 (Glutamate NMDA receptor [1]): 24 µM
- IC50 (Glutamate NMDA receptor [2]; read-out: IC50): 46 µM

SMILES: O=C1CC[C@]2(c3ccc(F)cc3)O[C@H]3Cc4ccccc4[C@@H]3N12
- IC50 (Glutamate NMDA receptor [1]): 15 µM
- IC50 (Glutamate NMDA receptor [2]; read-out: IC50): 61 µM
- IC50 (HepG2): > 100 µM
- IC50 (HEK293): > 100 µM

SMILES: N[C@@H](Cc1ccccn1)c1ccccc1 [LANICEMINE]
- Ki [4]: 0.56 µM

SMILES: O=C1CCC[C@@]2(c3ccccc3)O[C@@H]3Cc4ccccc4[C@@H]3N12
- IC50 (Glutamate NMDA receptor [2]; read-out: IC50): 13 µM

SMILES: CC[C@@]1(c2ccccc2Cl)CCCCC1=O
- Ki [4]: 0.659 µM

SMILES: Cc1ccc([C@@]23CCC(=O)N2[C@H]2c4ccccc4C[C@H]2O3)cc1Cl
- IC50 (Glutamate NMDA receptor [1]): 12 µM
- IC50 (Glutamate NMDA receptor [2]; read-out: IC50): 63 µM
- IC50 (HepG2): > 100 µM
- IC50 (HEK293): > 100 µM

SMILES: C[C@H]1CC(=O)N2[C@H]3c4ccccc4C[C@H]3O[C@]12c1ccc(Cl)cc1
- IC50 (Glutamate NMDA receptor [1]): 17 µM
- IC50 (Glutamate NMDA receptor [2]; read-out: IC50): 80 µM
- IC50 (HepG2): > 100 µM
- IC50 (HEK293): > 100 µM

SMILES: C[C@H]1CC(=O)N2[C@H]3c4ccccc4C[C@@H]3O[C@@]12c1ccc(Cl)cc1
- IC50 (Glutamate NMDA receptor [1]): 23 µM
- IC50 (Glutamate NMDA receptor [2]; read-out: IC50): 62 µM

SMILES: C[C@@H]1CC(=O)N2[C@H]3c4ccccc4C[C@@H]3O[C@@]12c1ccc(Cl)cc1
- IC50 (Glutamate NMDA receptor [2]; read-out: IC50): 32 µM

SMILES: O=C1CC[C@@]2(c3ccc(Cl)cc3)O[C@@H]3Cc4ccccc4[C@@H]3N12
- IC50 (Glutamate NMDA receptor [1]): 17 µM
- IC50 (Glutamate NMDA receptor [2]; read-out: IC50): 82 µM
- IC50 (HepG2): > 100 µM
- IC50 (HEK293): > 100 µM
- Papp at 2 h [3]: 19.2 ×10⁻⁶ cm/s

SMILES: c1ccc2c(c1)C[C@H]1N[C@@H]2c2ccccc21
- Ki [4]: 0.0372 µM

SMILES: Cc1ccc([C@]23CCC(=O)N2C2c4ccccc4C[C@@H]2O3)cc1Cl (single isomer, unassigned)
- IC50 (Glutamate NMDA receptor [2]; read-out: IC50): 49 µM

SMILES: O=C1CC[C@]2(c3ccc(Br)cc3)O[C@H]3Cc4ccccc4[C@@H]3N12
- IC50 (Glutamate NMDA receptor [1]): 11 µM
- IC50 (Glutamate NMDA receptor [2]; read-out: IC50): 66 µM
- IC50 (HepG2): > 100 µM
- IC50 (HEK293): > 100 µM
- Papp at 2 h [3]: 11.2 ×10⁻⁶ cm/s

SMILES: c1ccc(C2(N3CCCCC3)CCCCC2)cc1 [PHENCYCLIDINE]
- Ki [4]: 0.059 µM
